Patent US20010049372A1, “Antiviral nucleoside analogues” (BioChem Pharma Inc., priority 1998, published 2001)
Where two headings read alike, the source gives them in different places.

What was measured:
L74V = experiment: Recombinant drug resistant HIV-1 variants (RT activity); format: cell-based; details: Human immunodeficiency virus 1
Procedure: (§1) ANTIVIRAL ASSAYS. The anti-HIV-1 activity of the compound A (−) were assessed by employing HIV-1IIIB in a variety of cell types as previously described (Gu et al., 1992, 1994, 1999; Rando et al., 1995; Salomon et al., 1994). Briefly, cells were incubated with virus at a multiplicity of infection (MOI) of 0.005 for T cell assays and an MOI of 0.5 for monocytic cell assays for 3 hrs. Unbound virus was then removed by washing the cells, followed by seeding the cells into a 96-well plate. The infected cells were cultured in the presence of a serial concentrations of the test compound for 5-7 days. The anti-HIV-1 efficacy was determined by testing for HIV-1 RT activity or p24 level in the cell culture supernatants. All assays were performed in duplicate. Zidovudine and/or lamivudine were used as controls in each experiment.
(§2) Recombinant HIV-1 variants were prepared by introducing the designed mutations into HXB2-D by site-directed mutagenesis as described (Gu et al. 1992, 1994). The virus stocks were prepared by transfecting MT-4 cells with infectious viral DNA constructs. Antiviral activity of the compound A (−) was evaluated as described in example 10.

JM4 = experiment: as above; format: cell-based; details: Human immunodeficiency virus 1
Procedure: as §1, §2

M184V = experiment: as above; format: cell-based; details: Human immunodeficiency virus 1
Procedure: as §1, §2

JM1 = experiment: as above; format: cell-based; details: Human immunodeficiency virus 1, JM1
Procedure: as §1, §2

PI^R = experiment: as above; format: cell-based; details: Human immunodeficiency virus 1
Procedure: as §1, §2

NNRTI^R = experiment: as above; format: cell-based; details: Human immunodeficiency virus 1
Procedure: as §1, §2

K65R/M184V = experiment: as above; format: cell-based; details: Human immunodeficiency virus 1
Procedure: as §1, §2

E89G/M184V = experiment: as above; format: cell-based; details: Human immunodeficiency virus 1
Procedure: as §1, §2

M184I = experiment: as above; format: cell-based; details: Human immunodeficiency virus 1
Procedure: as §1, §2

[1] = Cellular toxicity by [3H]-thymidine uptake; format: cell-based, human; details: human, Table 14, PHA-stimulated PBMCs, read-out: CC50 (μM) [^3H]TTP incorporation in: PBMC
Procedure: Cellular toxicity was assessed by [^3H]thymidine uptake (de Muys et al. 1999) and WST-1 staining. In the [^3H]thymidine uptake experiments, Molt-4, HT1080, DU-145, HepG2 and HSF, were plated at a concentration of 1-2×10^3 cells per well (96 well plates). PHA-stimulated PBMCs were cultured at a concentration of 4×10^4 cells per well. Following a 24 hr pre-incubation period, test compounds (10^−4 M to 10^−10 M) were added and the cells were incubated for an additional 72 hrs. [^3H]thymidine was added during the final 18 hr incubation period. The cells were then washed once with PBS, treated with trypsin if the cells were adherent, and resuspended in water (hypotonic lysing of cells). The cellular extract was applied directly to a Tomtec Harvester 96. The 50% cytotoxic concentration (CC50) was determined by comparing the radioactive counts per minute obtained from drug-tested samples to those obtained from the control (untreated) cells.

HIV-1IIIB = experiment: Anti-HIV-1 antiviral assay with HIV-1IIIB in various cell types (RT activity); format: cell-based
Procedure: as §1
Activity of the compound A (−) against HIV-1 in various cells. Anti-HIV-1 activity of the compound A (−) were tested in different types of cells, including human peripheral […] cells (PBMCs), T-cell (MT-2 and MT-4) and monocytic cell (U937) lines. The compound A (−) had submicromolar EC50s against HIV-1IIIB in different types of cells tested (Table 2).

105/A (wt) = experiment: Drug-resistant clinical isolates in PBMCs (p24); format: cell-based, HIV-1; details: Human immunodeficiency virus 1, PBMC
Procedure: as §1
(§3) Clinical strains were isolated from PBMCs of HIV-1 infected individuals through co-culture with PBMCs from normal dornors. To determine the RT genotype of the HIV-1 clinical isolates, the proviral DNA was extracted from infected CD4^+ T-cells or PBMCs and the complete RT coding regions were amplified by PCR as previously reported (Gu et al 1992). The PCR product was purified and then directly sequenced using primer RTS (5′-CCAAAAGTTAAACAATGGC-3′) which is located at the 5′ portion of the RT coding region (nucleotide 2603-2621 of HXB2-D coordinates). Antiviral activity was evaluated as described in example 10.

CCR18 (Lamivudine^R) = experiment: Drug-resistant clinical isolates in PBMCs (p24); format: cell-based, HIV-1; details: Human immunodeficiency virus 1, PBMC
Procedure: as §1, §3

CCR19 (Lamivudine^R) = experiment: Drug-resistant clinical isolates in PBMCs (p24); format: cell-based, HIV-1; details: Human immunodeficiency virus 1, PBMC
Procedure: as §1, §3

CCR15 (Lamivudine^R) = experiment: Drug-resistant clinical isolates in PBMCs (p24); format: cell-based, HIV-1; details: Human immunodeficiency virus 1, PBMC
Procedure: as §1, §3

105/F (zidovudine^R) = experiment: Drug-resistant clinical isolates in PBMCs (p24); format: cell-based, HIV-1; details: Human immunodeficiency virus 1, PBMC
Procedure: as §1, §3

HXB2-D (wt) = experiment: Recombinant HIV-1 variants (RT activity); format: cell-based; details: Human immunodeficiency virus 1, HXB2
Procedure: as §1, §2

[2] = tested on: Zidovudine^R/Lamivudine^R (3) clinical HIV-1 isolates (second group of Table 7); experiment: Clinical HIV-1 isolates (RT activity); format: cell-based; details: Human immunodeficiency virus 1, Zidovudine^R/Lamivudine^R (3 isolates)
Procedure: as §1, §3

[3] = tested on: Zidovudine^R/Lamivudine^R (2) clinical HIV-1 isolates; experiment: Clinical HIV-1 isolates (RT activity); format: cell-based; details: Human immunodeficiency virus 1, Zidovudine^R/Lamivudine^R (2 isolates)
Procedure: as §1, §3

[4] = tested on: Zidovudine^S/Lamivudine^S (7) clinical HIV-1 isolates; experiment: Clinical HIV-1 isolates (RT activity); format: cell-based; details: Human immunodeficiency virus 1, Zidovudine^S/Lamivudine^S (7 isolates)
Procedure: as §1, §3

[5] = Human immunodeficiency virus 1, HIV-1IIIB, MT-2 (4 determinations), RT activity, read-out: EC50
[6] = Human immunodeficiency virus 1, HIV-1IIIB, MT-4 (2 determinations), RT activity, read-out: EC50
[7] = Human immunodeficiency virus 1, MT2, HIV-1IIIB, MT-2 cells, determined by RT activity, read-out: EC50 (μM) ± S.D. in MT-2 cells
[8] = Human immunodeficiency virus 1, PBMC, HIV-1IIIB, PBMCs (3 determinations), RT activity, read-out: EC50
[9] = Human immunodeficiency virus 1, U-937, HIV-1IIIB, U937 (1 determination), RT activity, read-out: EC50
[10] = second group (r9), read-out: EC50 (μM), mean EC50 values
[11] = second group (r10), read-out: EC50 (μM), ranges of EC50s of the isolates in the same group
[12] = read-out: EC50 (μM), mean EC50 values
[13] = read-out: EC50 (μM), ranges of EC50s of the isolates in the same group

Row | Compound | EC50 (L74V) [nM] | EC50 (JM4) [nM] | EC50 (M184V) [nM] | EC50 (JM1) [nM] | EC50 (PI^R) [nM] | EC50 (NNRTI^R) [nM] | EC50 (K65R/M184V) [nM] | EC50 (E89G/M184V) [nM] | EC50 (M184I) [nM] | CC50 at 72 h [1] [µM] | EC50 (HIV-1IIIB; [5]) [µM] | EC50 (HIV-1IIIB; [6]) [µM] | EC50 (HIV-1IIIB; [7]) [µM] | EC50 (HIV-1IIIB; [8]) [µM] | EC50 (HIV-1IIIB; [9]) [µM] | IC50 (105/A (wt)) [nM] | IC50 (CCR18 (Lamivudine^R)) [nM] | IC50 (CCR19 (Lamivudine^R)) [nM] | IC50 (CCR15 (Lamivudine^R)) [nM] | IC50 (105/F (zidovudine^R)) [nM] | further results
1 | Nc1nc(NC2CC2)c2ncn([C@H]3CO[C@@H](CO)O3)c2n1 [Compound A (-), (−)-(2R,4R)-2-hydroxymethyl-4-(2′-amino-6′-cyclopropylamino-purine-9′-yl)-1,3-dioxolane] | 620 | 580 | 530 | 1830 | 200 | 100 | 1100 | 510 | 990 | 286 | 0.082 | 0.14 | 0.083 | 0.22 | 0.82 | 600 | 1300 | 1600 | 300 | 840 | EC50 (HXB2-D (wt)): 530 nM; EC50 [2, 10]: 0.38 µM; EC50 [2, 11]: 0.13 to 0.51 µM; EC50 [3]: 0.33 µM; EC50 [4, 12]: 0.15 µM; EC50 [4, 13]: 0.032 to 0.31 µM
2 | Cc1cn([C@H]2C[C@H](N=[N+]=[N-])[C@@H](CO)O2)c(=O)[nH]c1=O [Zidovudine, zidovudine] | 10 | 270 | 20 | 27 | 17 | 6.1 | 31 | 22 | 9 | 9 | 0.0051 | 0.015 | 0.0051 ± 0.0025 | 0.0027 | 0.027 | 4.3 | 4.2 | 3 | 3 | 230 | EC50 (HXB2-D (wt)): 23 nM; EC50 [2, 10]: 0.012 µM; EC50 [2, 11]: 0.0026 to 0.019 µM; EC50 [3]: 1.15 µM; EC50 [4, 12]: 0.021 µM; EC50 [4, 13]: 0.0034 to 0.051 µM
3 | Nc1ccn([C@@H]2CS[C@H](CO)O2)c(=O)n1 [Lamivudine, lamivudine] | 510 | 850 | > 40000 | > 40000 | 290 | 150 | > 40000 | > 40000 | > 40000 | > 500 | 0.061 | 0.17 | 0.061 ± 0.028 | 0.035 | 0.014 | 65 | 300000 | 95000 | 95000 | 170 | EC50 (HXB2-D (wt)): 350 nM; EC50 [2, 11]: ≥ 5.1 µM; EC50 [3]: 4.1 µM; EC50 [4, 12]: 0.23 µM; EC50 [4, 13]: 0.028 to 0.69 µM
